Results taken from PubChem BioAssay (NCI).
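Cells were grown in 96-well plates and exposed to each compound for 48 hours at five concentrations; endpoints were interpolated linearly between bracketing concentrations, or set to the highest concentration if not reached. GI50 is the concentration that inhibits growth by half. TGI: total growth inhibition.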

Key:
Test in all cases: NCI tumour cell line growth inhibition, 48 h
786-0 renal = tested on: 786-0 renal
A498 renal = tested on: A498 renal
A549 NSCLC = tested on: A549 NSCLC
ACHN renal = tested on: ACHN renal
BT-549 breast = tested on: BT-549 breast
CAKI-1 renal = tested on: CAKI-1 renal
CCRF-CEM leukemia = tested on: CCRF-CEM leukemia
COLO 205 colon = tested on: COLO 205 colon
DU-145 prostate = tested on: DU-145 prostate
EKVX NSCLC = tested on: EKVX NSCLC
HCC-2998 colon = tested on: HCC-2998 colon
HCT-116 colon = tested on: HCT-116 colon
HCT-15 colon = tested on: HCT-15 colon
HL-60(TB) leukemia = tested on: HL-60(TB) leukemia
HOP-62 NSCLC = tested on: HOP-62 NSCLC
HOP-92 NSCLC = tested on: HOP-92 NSCLC
HS 578T breast = tested on: HS 578T breast
HT29 colon = tested on: HT29 colon
IGROV1 ovarian = tested on: IGROV1 ovarian
KM12 colon = tested on: KM12 colon
LOX IMVI melanoma = tested on: LOX IMVI melanoma
M14 melanoma = tested on: M14 melanoma
MALME-3M melanoma = tested on: MALME-3M melanoma
MCF7 breast = tested on: MCF7 breast
MDA-MB-231 breast = tested on: MDA-MB-231 breast
MDA-MB-435 = tested on: MDA-MB-435
MDA-MB-468 breast = tested on: MDA-MB-468 breast
MOLT-4 leukemia = tested on: MOLT-4 leukemia
NCI-H226 lung = tested on: NCI-H226 lung
NCI-H23 lung = tested on: NCI-H23 lung
NCI-H460 lung = tested on: NCI-H460 lung
NCI-H522 lung = tested on: NCI-H522 lung
OVCAR-3 ovarian = tested on: OVCAR-3 ovarian
OVCAR-4 ovarian = tested on: OVCAR-4 ovarian
OVCAR-5 ovarian = tested on: OVCAR-5 ovarian
OVCAR-8 ovarian = tested on: OVCAR-8 ovarian
PC-3 prostate = tested on: PC-3 prostate
RPMI-8226 leukemia = tested on: RPMI-8226 leukemia
RXF 393 renal = tested on: RXF 393 renal
SF-268 CNS = tested on: SF-268 CNS
SF-295 CNS = tested on: SF-295 CNS
SF-539 CNS = tested on: SF-539 CNS
SK-MEL-2 melanoma = tested on: SK-MEL-2 melanoma
SK-MEL-28 melanoma = tested on: SK-MEL-28 melanoma
SK-MEL-5 melanoma = tested on: SK-MEL-5 melanoma
SK-OV-3 ovarian = tested on: SK-OV-3 ovarian
SN12C renal = tested on: SN12C renal
SNB-19 CNS = tested on: SNB-19 CNS
SNB-75 CNS = tested on: SNB-75 CNS
SR leukemia = tested on: SR leukemia
SW-620 colon = tested on: SW-620 colon
T-47D breast = tested on: T-47D breast
TK-10 renal = tested on: TK-10 renal
U251 CNS = tested on: U251 CNS
UACC-257 melanoma = tested on: UACC-257 melanoma
UACC-62 melanoma = tested on: UACC-62 melanoma
UO-31 renal = tested on: UO-31 renal

CN1CCc2c(sc3ncnc(N/N=C/c4ccc(Cl)cc4Cl)c23)C1
GI50 (786-0 renal): 1.77 µM
TGI (786-0 renal): 3.26 µM
GI50 (A498 renal): 3.22 µM
TGI (A498 renal): 12.3 µM
GI50 (A549 NSCLC): 3.73 µM
TGI (A549 NSCLC): 16.9 µM
GI50 (ACHN renal): 1.88 µM
TGI (ACHN renal): 3.97 µM
GI50 (BT-549 breast): 3.97 µM
TGI (BT-549 breast): 16 µM
GI50 (CAKI-1 renal): 1.8 µM
TGI (CAKI-1 renal): 3.87 µM
GI50 (CCRF-CEM leukemia): 2.45 µM
TGI (CCRF-CEM leukemia): 12.2 µM
GI50 (COLO 205 colon): 1.66 µM
TGI (COLO 205 colon): 3.41 µM
GI50 (DU-145 prostate): 6.47 µM
TGI (DU-145 prostate): > 100 µM
GI50 (EKVX NSCLC): 10.8 µM
TGI (EKVX NSCLC): > 100 µM
GI50 (HCC-2998 colon): 3.69 µM
TGI (HCC-2998 colon): 15.3 µM
GI50 (HCT-116 colon): 3.04 µM
TGI (HCT-116 colon): 11.4 µM
GI50 (HCT-15 colon): 2.95 µM
TGI (HCT-15 colon): 13.7 µM
GI50 (HL-60(TB) leukemia): 2.12 µM
TGI (HL-60(TB) leukemia): 6.11 µM
GI50 (HOP-62 NSCLC): 3.34 µM
TGI (HOP-62 NSCLC): 16.9 µM
GI50 (HOP-92 NSCLC): 1.95 µM
TGI (HOP-92 NSCLC): 5.96 µM
GI50 (HS 578T breast): 3.18 µM
TGI (HS 578T breast): 27.3 µM
GI50 (HT29 colon): 2.13 µM
TGI (HT29 colon): 4.91 µM
GI50 (IGROV1 ovarian): 6.89 µM
TGI (IGROV1 ovarian): > 100 µM
GI50 (KM12 colon): 4.3 µM
TGI (KM12 colon): 25.7 µM
GI50 (LOX IMVI melanoma): 1.49 µM
TGI (LOX IMVI melanoma): 2.93 µM
GI50 (M14 melanoma): 1.71 µM
TGI (M14 melanoma): 3.45 µM
GI50 (MALME-3M melanoma): 1.9 µM
TGI (MALME-3M melanoma): 3.94 µM
GI50 (MCF7 breast): 2.36 µM
TGI (MCF7 breast): 14.7 µM
GI50 (MDA-MB-231 breast): 1.93 µM
TGI (MDA-MB-231 breast): 4.71 µM
GI50 (MDA-MB-435): 2.11 µM
TGI (MDA-MB-435): 5.44 µM
GI50 (MDA-MB-468 breast): 1.52 µM
TGI (MDA-MB-468 breast): 3.32 µM
GI50 (MOLT-4 leukemia): 2.9 µM
TGI (MOLT-4 leukemia): 18.4 µM
GI50 (NCI-H226 lung): 2.11 µM
TGI (NCI-H226 lung): 8.21 µM
GI50 (NCI-H23 lung): 2.81 µM
TGI (NCI-H23 lung): 10.7 µM
GI50 (NCI-H460 lung): 3.2 µM
TGI (NCI-H460 lung): 13.3 µM
GI50 (NCI-H522 lung): 3.38 µM
TGI (NCI-H522 lung): 13.3 µM
GI50 (OVCAR-3 ovarian): 1.34 µM
TGI (OVCAR-3 ovarian): 2.88 µM
GI50 (OVCAR-4 ovarian): 1.79 µM
TGI (OVCAR-4 ovarian): 3.81 µM
GI50 (OVCAR-5 ovarian): 2.84 µM
TGI (OVCAR-5 ovarian): 11.2 µM
GI50 (OVCAR-8 ovarian): 2.38 µM
TGI (OVCAR-8 ovarian): 7.62 µM
GI50 (PC-3 prostate): 3.96 µM
TGI (PC-3 prostate): > 100 µM
GI50 (RPMI-8226 leukemia): 2.51 µM
TGI (RPMI-8226 leukemia): 11.8 µM
GI50 (RXF 393 renal): 2.1 µM
TGI (RXF 393 renal): 4.95 µM
GI50 (SF-268 CNS): 4.64 µM
TGI (SF-268 CNS): > 100 µM
GI50 (SF-295 CNS): 2.3 µM
TGI (SF-295 CNS): 8.18 µM
GI50 (SF-539 CNS): 1.81 µM
TGI (SF-539 CNS): 3.28 µM
GI50 (SK-MEL-2 melanoma): 3.59 µM
TGI (SK-MEL-2 melanoma): 13.9 µM
GI50 (SK-MEL-28 melanoma): 2.04 µM
TGI (SK-MEL-28 melanoma): 5.37 µM
GI50 (SK-MEL-5 melanoma): 1.66 µM
TGI (SK-MEL-5 melanoma): 3.72 µM
GI50 (SK-OV-3 ovarian): 3.04 µM
TGI (SK-OV-3 ovarian): 12.5 µM
GI50 (SN12C renal): 2.43 µM
TGI (SN12C renal): 6.7 µM
GI50 (SNB-19 CNS): 4.01 µM
TGI (SNB-19 CNS): > 100 µM
GI50 (SNB-75 CNS): 1.54 µM
TGI (SNB-75 CNS): 4.2 µM
GI50 (SR leukemia): 2.27 µM
TGI (SR leukemia): 9.19 µM
GI50 (SW-620 colon): 1.91 µM
TGI (SW-620 colon): 4.34 µM
GI50 (T-47D breast): 2.1 µM
TGI (T-47D breast): 6.59 µM
GI50 (TK-10 renal): 2.53 µM
TGI (TK-10 renal): 6.36 µM
GI50 (U251 CNS): 1.92 µM
TGI (U251 CNS): 4.31 µM
GI50 (UACC-257 melanoma): 2.86 µM
TGI (UACC-257 melanoma): 9.96 µM
GI50 (UACC-62 melanoma): 1.7 µM
TGI (UACC-62 melanoma): 3.67 µM
GI50 (UO-31 renal): 1.47 µM
TGI (UO-31 renal): 2.83 µM
